One assay has as its system Morningglory Entireleaf. The assay can be described thus: Cabinet spray of glyphosate (about 0.63 lb AI per 10 gallons per acre) with or without sulfate adjuvant on morningglory. Format: in vivo, abutilon theophrasti medik. Particulars: for Morning Glory % Control 7 DAT / Morning Glory % Control 14 DAT / Morning Glory % Control 21 DAT / Morning Glory Fresh Weight 21 DAT: no sulfate adjuvant. An excerpt:
(§1) The formulations shown in Table 1 and Table 2 are either glyphosate and ammonium sulfate (AMS) or glyphosate and isopropylammonium sulfate (MIPAS). In Table 1 and Table 2, 0 ppm hardness refers to the absence of minerals such as calcium ions and 1000 ppm hardness refers to the amount of calcium ions present. The moles of sulfate indicate the amount of isopropylammonium sulfate or ammonium sulfate per liter. The aqueous solution was applied to the plots at a level of 10 gallons per acre. The two tested plants were Morningglory Entireleaf ([…]) and Velvetleaf ([…]). The term YBI in the Figures indicates the adjuvant was isopropylammonium sulfate.
(§2) The herbicidal solutions were applied in a cabinet using a Lodrift nozzle having a nozzle size 110015. The spray apparatus was operated at 40 psi using air as the propellant and water as a carrier. The boom height was 13.5 inches. The ground speed was 2.6 miles per hour. The morningglory was at the three-leaf stage when the herbicidal solution was applied. The velvetleaf was 4-6 inches in height when the herbicidal solution was applied. The normalized spray volume was 10 gallons per acre.
(§3) The Figures show values of pounds of ammonium sulfate or isopropylammonium sulfate per hundred gallons. The actual solutions used were nominally ten gallons of the sulfate in water, e.g. one-tenth of the sulfate per hundred gallons of carrier, with twenty fluid ounces of glyphosate. Twenty fluid ounces of glyphosate contains about 0.63 pounds of glyphosate active ingredient (AI) reported as the isopropylammonium. The glyphosate active ingredient (AI) as the isopropylammonium salt is related to the glyphosate acid equivalents (AE) by the formula: (0.7142)(AI)=AE.
(§4) FIGS. 1 and 3 show the fresh weight of morningglory and velvetleaf, respectively. The fresh weight was determined by cutting the stem of the plant flush with the ground and weighing the plant. The weight is reported as grams per pot since a single plant was grown in each pot. FIGS. 2 and 4 show the percent control at 7, 14 and 21 days for morningglory and velvetleaf, respectively.

In the next assay the test system is soybeans. The assay can be described thus: Greenhouse spray of glyphosate (0.75 lb AI per 10 gallons per acre) with or without sulfate adjuvant on soybean. Format: in vivo, Glycine max. Particulars: for height reduction of soybean, statistical comparison with the no adjuvant case / weight reduction of soybean, statistical comparison with the no adjuvant case: 0 ppm water hardness and 342 ppm water hardness; for Plant Height Soybean % Control 15 DAT / Plant Weight Soybean % Control 15 DAT: no sulfate adjuvant. From the text:
(§5) The formulations shown in Table 3 and Table 4 are either glyphosate and ammonium sulfate (AMS) or glyphosate and isopropylammonium sulfate (MIPAS). In Table 3 and Table 4, 0 ppm hardness refers to the absence of minerals such as calcium ions and 342 ppm hardness refers to the amount of calcium ions present. The moles of sulfate indicate the amount of isopropylammonium sulfate or ammonium sulfate per liter. The aqueous solution was applied to the plots at a level of 10 gallons per acre. The two tested plants were soybeans (Glycine max) and grain sorghum (Milo), (Sorghum bicolar).
(§6) The herbicidal solutions were applied in a greenhouse using a Spray chamber with an FF nozzle having a nozzle size 8001EVS. The spray apparatus was operated at 38 psi and the height of the nozzle was 9.75 inches. The watering frequency was every 6 hours for 5 minutes. The daytime temperature was 85° F. and the nighttime temperature was 70° F. with a 16 hour day. The soybean was 4-4.5 inches with one trifoliate leaf present when the herbicidal solution was applied. The grain sorghum was 4-8 inches with 3-4 leaves present when the herbicidal solution was applied.
(§7) The Figures show values of moles of ammonium sulfate or isopropylammonium sulfate per liter. The actual solution used on the grain sorghum contained 0.13 pounds of glyphosate active ingredient per 10 gallons of water per acre. The actual solution used on the soybean contained 0.75 pounds glyphosate active ingredient per 10 gallons of water per acre.
(§8) FIGS. 5 and 9 show the height of sorghum and soybean, respectively, when distilled water was used, as a percent reduction of the height of the control after 15 days. FIGS. 6 and 10 show the height of sorghum and soybean, respectively, when hard water was used, as a percent reduction of the height of the control after 15 days. FIGS. 7 and 11 show the fresh weight of sorghum and soybean, respectively, when distilled water was used, as a percent reduction of the weight of the control after 15 days. FIGS. 8 and 12 show the fresh weight of sorghum and soybean, respectively, when hard water was used, as a percent reduction of the weight of the control after 15 days. The plants were harvested and weighed to determine the fresh weight.

The subject of another assay is Velvetleaf. Briefly: Cabinet spray of glyphosate (about 0.63 lb AI per 10 gallons per acre) with or without sulfate adjuvant on velvetleaf. As to conditions: for Velvet Leaf % Control 7 DAT / Velvet Leaf % Control 14 DAT / Velvet Leaf % Control 21 DAT / Velvet Leaf Fresh Weight 21 DAT: no sulfate adjuvant. Format: in vivo, ipomoea hederacea (L.) jacq. Var. integriuscula gray.
Description: as §1, §2, §3, §4
(§9) Bartlett's test (commonly used in the agricultural business) was used to statistically analyze the results.

Another assay deals with grain sorghum (Milo). The assay can be described thus: Greenhouse spray of glyphosate (0.13 lb AI per 10 gallons per acre) with or without sulfate adjuvant on grain sorghum. Format: in vivo, Sorghum bicolar. Particulars: for Plant Height Sorghum % Control 15 DAT / Plant Weight Sorghum % Control 15 DAT: no sulfate adjuvant.
Description: as §5, §6, §7, §8, §9

The mark [1] stands for this setting: water hardness 0 ppm, AMS at the two highest concentrations, all MIPAS concentrations.
[2] abbreviates: water hardness 1000 ppm, higher concentrations of AMS, all MIPAS.
The mark [3] stands for this setting: water hardness 1000 ppm, two higher concentrations of AMS, all the MIPAS treatments.
Where [4] appears, read: 342 ppm of water hardness, three highest concentrations of MIPAS, two higher concentrations of AMS.

Structures are written as SMILES.

With `N.N.O=S(=O)(O)O` [AMS, ammonium sulfate], the “height reduction of morningglory, statistical comparison with the no adjuvant case (Bartlett's test)” value in the assay with Morningglory Entireleaf (setting [1]) and in the assay on Morningglory Entireleaf (setting [3]) was “statistically different from the no adjuvant case” throughout. Moreover, the “fresh weight of morningglory, statistical comparison with the no adjuvant case (Bartlett's test)” value in the assay on Morningglory Entireleaf (setting [2]) is on record as “statistical difference”. Moreover, in the assay with soybeans, the “height reduction of soybean, statistical comparison with the no adjuvant case” value is “not significantly different from the no adjuvant case”. In the assay on soybeans, the “weight reduction of soybean, statistical comparison with the no adjuvant case” value was “not significantly different from the no adjuvant case”. In addition, the “fresh weight of velvetleaf, statistical comparison with no adjuvant (Bartlett's test)” value was “no statistical difference” in the assay with Velvetleaf (water hardness 0 ppm) and “no statistical difference” with Velvetleaf (water hardness 1000 ppm, MIPAS at the two higher concentrations). The “fresh weight of sorghum, statistical comparison with the no adjuvant case (Bartlett's test)” value in the assay with grain sorghum (Milo) (0 ppm water hardness) is “not significantly different from the no adjuvant case”; with grain sorghum (Milo) (setting [4]), “significantly different than the no adjuvant case”. Also, in the assay on grain sorghum (Milo) (0 ppm water hardness), the “height reduction of sorghum, statistical comparison with the no adjuvant case (Bartlett's test)” value is “not significantly different from the no adjuvant case”.

Regarding `O=C(O)CNCP(=O)(O)O` [Glyphosate, N-phosphonomethylglycine], in the assay on Morningglory Entireleaf (water hardness 0 ppm), the “Morning Glory % Control 7 DAT” value came out at 56%, the “Morning Glory % Control 14 DAT” value is 56%, the “Morning Glory % Control 21 DAT” value turned out to be 50% and the “Morning Glory Fresh Weight 21 DAT” value was 1.4 grams per pot. In the assay on Morningglory Entireleaf (water hardness 1000 ppm), the “Morning Glory % Control 7 DAT” value is reported as 51%, the “Morning Glory % Control 14 DAT” value was 48%, the “Morning Glory % Control 21 DAT” value is given as 46% and the “Morning Glory Fresh Weight 21 DAT” value is listed as 1.9 grams per pot. Also, in the assay on soybeans (water hardness 0 ppm), the “Plant Height Soybean % Control 15 DAT” value was found to be 47.55% and the “Plant Weight Soybean % Control 15 DAT” value turned out to be 75.60%. For the same compound, in the assay with soybeans (water hardness 342 ppm), the “Plant Height Soybean % Control 15 DAT” value came out at 47.77% and the “Plant Weight Soybean % Control 15 DAT” value is given as 59.20%. Besides, in the assay with Velvetleaf (water hardness 0 ppm), the “Velvet Leaf % Control 7 DAT” value amounted to 52%, the “Velvet Leaf % Control 14 DAT” value was 84%, the “Velvet Leaf % Control 21 DAT” value is listed as 88% and the “Velvet Leaf Fresh Weight 21 DAT” value is listed as 1.1 grams per pot. Besides, in the assay on Velvetleaf (water hardness 1000 ppm), the “Velvet Leaf % Control 7 DAT” value was 48%, the “Velvet Leaf % Control 14 DAT” value was 56%, the “Velvet Leaf % Control 21 DAT” value is reported as 52% and the “Velvet Leaf Fresh Weight 21 DAT” value worked out at 1.8 grams per pot. In addition, in the assay on grain sorghum (Milo) (water hardness 0 ppm), the “Plant Height Sorghum % Control 15 DAT” value was found to be 41.04% and the “Plant Weight Sorghum % Control 15 DAT” value came to 59.86%. In addition, in the assay on grain sorghum (Milo) (water hardness 342 ppm), the “Plant Height Sorghum % Control 15 DAT” value came out at 14.55% and the “Plant Weight Sorghum % Control 15 DAT” value worked out at 40.97%.

As for `CC(C)N.CC(C)N.O=S(=O)(O)O` [MIPAS, isopropylammonium sulfate], in the assay with Morningglory Entireleaf (water hardness 0 ppm), the “fresh weight of morningglory, statistical comparison of MIPAS with AMS (Bartlett's test)” value is reported as “no statistically significant difference”; the “fresh weight of morningglory, statistical comparison with the no adjuvant case (Bartlett's test)” value is “statistical difference”; the “height reduction of morningglory, statistical comparison of MIPAS with AMS (Bartlett's test)” value is given as “no statistically significant difference”. Moreover, the “height reduction of morningglory, statistical comparison with the no adjuvant case (Bartlett's test)” value with Morningglory Entireleaf (setting [1]) is given as “statistically different from the no adjuvant case”. Further, in the assay on Morningglory Entireleaf (water hardness 1000 ppm), the “fresh weight of morningglory, statistical comparison of MIPAS with AMS (Bartlett's test)” value is listed as “no statistically significant difference” and the “height reduction of morningglory, statistical comparison of MIPAS with AMS (Bartlett's test)” value was “not statistically significant”. Also, the “fresh weight of morningglory, statistical comparison with the no adjuvant case (Bartlett's test)” value in the assay with Morningglory Entireleaf (setting [2]) is on record as “statistically different from the no adjuvant case”. The “height reduction of morningglory, statistical comparison with the no adjuvant case (Bartlett's test)” value in the assay with Morningglory Entireleaf (setting [3]) was “statistically different from the no adjuvant case”. Further, in the assay on soybeans, the “height reduction of soybean, statistical comparison with the no adjuvant case” value was “not significantly different from the no adjuvant case” and the “weight reduction of soybean, statistical comparison with the no adjuvant case” value was “not significantly different from the no adjuvant case”. Moreover, the “fresh weight of velvetleaf, statistical comparison with no adjuvant (Bartlett's test)” value in the assay with Velvetleaf (water hardness 0 ppm) is “no statistical difference”. In addition, the “height reduction of velvetleaf, statistical comparison with the no adjuvant case (Bartlett's test)” value in the assay with Velvetleaf (water hardness 0 ppm and 1000 ppm) is “statistically different from the no adjuvant case”. For the same compound, the “height reduction of velvetleaf, statistical comparison of MIPAS with AMS (Bartlett's test)” value in the assay on Velvetleaf (water hardness 0 ppm, high MIPAS concentrations) is “statistically different from the AMS results”. In the assay with Velvetleaf (water hardness 1000 ppm), the “fresh weight of velvetleaf, statistical comparison of MIPAS with AMS (Bartlett's test)” value is reported as “no statistically significant difference” and the “height reduction of velvetleaf, statistical comparison of MIPAS with AMS (Bartlett's test)” value is recorded as “not statistically significant”. For the same compound, in the assay on grain sorghum (Milo) (0 ppm water hardness), the “fresh weight of sorghum, statistical comparison with the no adjuvant case (Bartlett's test)” value is on record as “not significantly different from the no adjuvant case” and the “height reduction of sorghum, statistical comparison with the no adjuvant case (Bartlett's test)” value is given as “not significantly different from the no adjuvant case”. In the assay on grain sorghum (Milo) (342 ppm of water hardness), the “fresh weight of sorghum, statistical comparison of MIPAS with AMS (Bartlett's test)” value is “not significantly different from each other”; the “height reduction of sorghum, statistical comparison of MIPAS with AMS (Bartlett's test)” value was “not significantly different than the AMS results”; the “height reduction of sorghum, statistical comparison with the no adjuvant case (Bartlett's test)” value is listed as “significantly different than the no adjuvant case”. Besides, the “fresh weight of sorghum, statistical comparison with the no adjuvant case (Bartlett's test)” value in the assay with grain sorghum (Milo) (setting [4]) was “significantly different than the no adjuvant case”.
